Measured values from US20160250285A1, “NEUROPROTECTIVE PEPTIDES” (priority 2013, published 2016).
Like-named read-outs stand apart in the source and are kept apart here. Square brackets hold non-standard residues; d marks the D form.

Experiments:
[1] = system: primary cortical neuronal cultures; assay: In vitro ischemia / oxygen-glucose deprivation (OGD) model, neurons; type: cell-based, rat; conditions: peptide present during in vitro ischemia and at 50% dose after (FIG. 3a)
Description: Establishment of cortical cultures was as previously described (Meloni et al. 2001). Briefly, cortical tissue from E18-E19 Sprague-Dawley rats was dissociated in Dulbecco's modified Eagle medium (DMEM; Invitrogen, Australia) supplemented with 1.3 mM L-cysteine, 0.9 mM NaHCOa, 10 units/ml papain (Sigma, USA) and 50 units/ml DNase (Sigma) and washed in cold DMEM/10% horse serum. Neurons were resuspended in Neurobasal (Invitrogen) containing 2% B27 supplement (B27; Invitrogen). Before seeding, 96-well sized glass wells (6 mm diameter, ProTech, Australia) or 96-well plastic plates (ProSciTech, Australia) were coated with poly-D-lysine overnight (50 ml/well: 50 mg/mL; 70-150 K, Sigma). Excess poly-D-lysine solution was then removed and replaced with Neurobasal (containing 2% B27; 4% fetal bovine serum; 1% horse serum; 62.5 mM glutamate; 25 mM 2-mercaptoethanol; and 30 mg/mL streptomycin and 30 mg/mL penicillin). Neurons were plated to obtain ≈10,000 viable neurons for each well on day in vitro 11-12. Neuronal cultures were maintained in a CO2 incubator (5% CO2, 95% air balance, 98% humidity) at 37° C. On day in vitro 4 one third of the culture medium was removed and replaced with fresh Neurobasal/2% B27 containing the mitotic inhibitor, cytosine arabinofuraNOside (1 mM final concentration; Sigma). On day in vitro 8 one half of the culture medium was replaced with Neurobasal/2% B27. Cultures were used on day in vitro 11 or 12 after which time they routinely consist of >97% neurons and 1-3% astrocytes (Meloni et al. 2001).
The in vitro ischemia model used for primary cortical neuronal cultures was performed as previously described (Meloni et at 2011) Briefly, culture media was removed from wells (glass 96-well plate format) and washed with 315 μl of glucose free balanced salt solution (BSS; mM: 116 NaCl, 5.4 KCl, 1.8 CaCl2, 0.8 MgSO4, 1 NaH2PO4; pH 6.9) before the addition of 60 μl BSS containing cell penetrating or control peptides (see Table 1). A non-peptide positive control consisting of the glutamate receptor blockers (5 μM MK801/5 μM 6-cyano-7-nitroquinoxaline: MK801/CNQX) was also included. In vitro ischemia was initiated by placing wells in an anaerobic incubator (Don Whitely Scientific, England; atmosphere of 5% CO2, 10% H2 and 85% argon, 98% humidity) at 37° C. for 55 minutes. Upon removal from the anaerobic incubator, 60 μl of Neurobasal/2% N2 supplement was added to the wells and cultures incubated for a further 24 hours at 37° C. in the CO2 incubator. Control cultures received the same BSS wash procedures and media additions as ischemic treated cultures before incubation at 37° C. in the CO2 incubator.
Control cultures underwent the same BSS wash procedures and media additions as OGD treated cultures.
Twenty-four hours after insult, neuronal cultures were examined by light microscopy for qualitative assessment of neuronal cell viability. Neuronal viability was quantitatively measured by 3-(4,5,dimethyliazol-2-yl)-5-(3-carboxymethoxy-phenyl)-2-(4-sulfophenyl)-2H-tetrazolium salt (MTS) assay (Promega, Australia). The MTS assay measures the cellular conversion of the tetrazolium salt to a water-soluble brown formazan salt, which is detected spectrophotometrically at 490 nm. MTS absorbance data were converted to reflect proportional cell viability relative to both the untreated and treated controls, with the untreated control taken as 100% viability, and presented as mean±SEM. […] Viability data was analysed by ANOVA, followed by post-hoc Fischer's PLSD test, with P<0.05 values considered statistically significant. Four- to six wells were used in all assays.

[2] = system: primary cortical neuronal cultures; conditions: for neuroprotection (neuronal viability): peptide 15 min prior to and during glutamic acid exposure, viability 24 h, MTS; for neuroprotection when added immediately after glutamic acid exposure: 0 min post-insult (FIG. 1d); for neuroprotection when added 15 minutes post-insult: 15 min post-glutamic acid (FIG. 1d)
Description: Briefly, cortical tissue from E18-E19 Sprague-Dawley rats was dissociated in Dulbecco's modified Eagle medium (DMEM; Invitrogen, Australia) supplemented with 1.3 mM L-cysteine, 0.9 mM NaHCOa, 10 units/ml papain (Sigma, USA) and 50 units/ml DNase (Sigma) and washed in cold DMEM/10% horse serum. Neurons were resuspended in Neurobasal (Invitrogen) containing 2% B27 supplement (B27; Invitrogen). Before seeding, 96-well sized glass wells (6 mm diameter, ProTech, Australia) or 96-well plastic plates (ProSciTech, Australia) were coated with poly-D-lysine overnight ([…]: 50 mg/mL; 70-150 K, Sigma). […] Neurons were plated to obtain ≈10,000 viable neurons for each well on day in vitro 11-12. […] On day in vitro 4 one third of the culture medium was removed and replaced with fresh Neurobasal/2% B27 containing the mitotic inhibitor, cytosine arabinofuraNOside (1 mM final concentration; Sigma). On day in vitro 8 one half of the culture medium was replaced with Neurobasal/2% B27.
(§1) To induce excitotoxicity, 50 μl of Neurobasal/2% B27 containing glutamic acid (200 μM) or kainic acid (400 μM) or NMDA (200 μM) was added to the culture wells (100 μM glutamic acid, 200 μM kainic acid and NMDA 100 μM final concentration). Cultures were incubated at 37° C. in the CO2 incubator for 5 minutes for glutamic acid, 45 minutes for kainic acid and 10 minutes for NMDA exposure, after which time the media was replaced with 100 μl of 50% Neurobasal/2% N2 supplement (Invitrogen) and 50% balanced salt solution (BSS; see below). Cultures were incubated for a further 24 hours at 37° C. in the CO2 incubator. The untreated controls with or without glutamic acid or kainic acid treatment received the same wash steps and media additions.
Following this step, cultures were treated as described above. Untreated controls with or without glutamic acid exposure received the same wash steps and media additions. In addition, a post-glutamic acid exposure CPP treatment (5 μM) experiment was performed for the R9 peptide and the JNKI-1D-TAT control peptide.
For pre-glutamic acid exposure experiments, neurons were exposed to peptide(s) for a 10 minute period, immediately before or 1, 2, 3, 4 or 5 hours prior to glutamic acid exposure. […] At the relevant peptide pre-treatment time, media was removed and replaced with 100 μl of Neurobasal/2%. […] Following 5-minute glutamic acid exposure, neuronal culture wells were treated as described above. For all experiments untreated controls with or without glutamic acid treatment underwent the same incubation steps and media additions.
Heparin (for injection) was obtained from Pfizer (1000 IU/ml). Two different heparin experiments were performed: 1. Peptides were incubated with heparin (20 IU/ml) in Neurobasal/B27 for 5 minutes at room temperature, before addition to culture wells (50 μl) for 15 minutes at 37° C. in the CO2 incubator. Following the incubation period, media in wells was removed and replaced with 100 μl of Neurobasal/2% B27 containing glutamic acid (100 μM), and subsequently treated as described above; 2. Media in wells was replaced with Neurobasal/2% B27 containing heparin (50 μl; 40 IU/ml) and incubated for 5 minutes at 37° C. in the CO2 incubator. After the incubation period, peptides or glutamate receptor blockers (MK801/CNQX) in Neurobasal/2% B27 (50 μl) were added to the culture wells and cultures incubated for a further 10 minutes at 37° C. in the CO2 incubator. Following the incubation period, media in wells was removed and replaced with 100 μl of Neurobasal/2% B27 containing glutamic acid (100 μM), and subsequently treated as described above. For all experiments, non-heparin treated peptide controls with glutamic acid treatment underwent the same incubation steps and media additions.
Twenty-four hours after insult, neuronal cultures were examined by light microscopy for qualitative assessment of neuronal cell viability.

[3] = system: primary cortical neuronal cultures; conditions: FIG. 2
Description: Establishment of cortical cultures was as previously described (Meloni et al. 2001). Briefly, cortical tissue from E18-E19 Sprague-Dawley rats was dissociated in Dulbecco's modified Eagle medium (DMEM; Invitrogen, Australia) supplemented with 1.3 mM L-cysteine, 0.9 mM NaHCOa, 10 units/ml papain (Sigma, USA) and 50 units/ml DNase (Sigma) and washed in cold DMEM/10% horse serum. Neurons were resuspended in Neurobasal (Invitrogen) containing 2% B27 supplement (B27; Invitrogen). Before seeding, 96-well sized glass wells (6 mm diameter, ProTech, Australia) or 96-well plastic plates (ProSciTech, Australia) were coated with poly-D-lysine overnight ([…]: 50 mg/mL; 70-150 K, Sigma). Excess poly-D-lysine solution was then removed and replaced with Neurobasal (containing 2% B27; 4% fetal bovine serum; 1% horse serum; […] glutamate; […] 2-mercaptoethanol; and […]). Neurons were plated to obtain ≈10,000 viable neurons for each well on day in vitro 11-12. Neuronal cultures were maintained in a CO2 incubator (5% CO2, 95% air balance, 98% humidity) at 37° C. On day in vitro 4 one third of the culture medium was removed and replaced with fresh Neurobasal/2% B27 containing the mitotic inhibitor, cytosine arabinofuraNOside (1 mM final concentration; Sigma). On day in vitro 8 one half of the culture medium was replaced with Neurobasal/2% B27. Cultures were used on day in vitro 11 or 12 after which time they routinely consist of >97% neurons and 1-3% astrocytes (Meloni et al. 2001).
as §1, with “Peptides were added to culture wells (96-well plate format) 15 minutes prior to glutamic acid or kainic acid exposure by removing media and adding 50 μl of Neurobasal/2% 327 containing CPPs, control peptides or MK801/CNQX. To” for “To”
(§2) Twenty-four hours after insult, neuronal cultures were examined by light microscopy for qualitative assessment of neuronal cell viability. Neuronal viability was quantitatively measured by 3-(4,5,dimethyliazol-2-yl)-5-(3-carboxymethoxy-phenyl)-2-(4-sulfophenyl)-2H-tetrazolium salt (MTS) assay (Promega, Australia). The MTS assay measures the cellular conversion of the tetrazolium salt to a water-soluble brown formazan salt, which is detected spectrophotometrically at 490 nm. MTS absorbance data were converted to reflect proportional cell viability relative to both the untreated and treated controls, with the untreated control taken as 100% viability, and presented as mean±SEM. For studies using astrocytes, bEND3, and SH-Y5Y cells, raw MTS data was used to generate graphs. Viability data was analysed by ANOVA, followed by post-hoc Fischer's PLSD test, with P<0.05 values considered statistically significant. Four- to six wells were used in all assays.

[4] = system: primary cortical neuronal cultures; conditions: values from Meade et al. (2010a,b); read-out: IC50: Glutamic acid model; cited from earlier work
[5] = system: intracellular calcium influx in neuronal cultures; assay: Intracellular calcium influx (Fura-2 AM) after glutamic acid; type: cell-based, rat; conditions: peptide 5 μM for 10 min, removed before 100 μM glutamic acid (FIG. 44)
Description: Fura-2 AM was used for intracellular calcium assessment. Representative fluorescent Fura-2 AM tracers; fluorescence intensity (FI) of neuronal cultures 30 sec before and following addition (arrow) of glutamic acid (100 μM final concentration). Peptides or glutamate receptor blockers were added to neuronal cultures for 10 min and removed (time 0) before glutamic acid. Values are mean±SE; n=3. Peptide concentration was 5 μM.
Briefly, cortical tissue from E18-E19 Sprague-Dawley rats was dissociated in Dulbecco's modified Eagle medium (DMEM; Invitrogen, Australia) supplemented with 1.3 mM L-cysteine, 0.9 mM NaHCOa, 10 units/ml papain (Sigma, USA) and 50 units/ml DNase (Sigma) and washed in cold DMEM/10% horse serum. Neurons were resuspended in Neurobasal (Invitrogen) containing 2% B27 supplement (B27; Invitrogen). Before seeding, 96-well sized glass wells (6 mm diameter, ProTech, Australia) or 96-well plastic plates (ProSciTech, Australia) were coated with poly-D-lysine overnight (50 ml/well: 50 mg/mL; 70-150 K, Sigma). Excess poly-D-lysine solution was then removed and replaced with Neurobasal (containing 2% B27; 4% fetal bovine serum; 1% horse serum; 62.5 mM glutamate; 25 mM 2-mercaptoethanol; and 30 mg/mL streptomycin and 30 mg/mL penicillin). Neurons were plated to obtain ≈10,000 viable neurons for each well on day in vitro 11-12. Neuronal cultures were maintained in a CO2 incubator (5% CO2, 95% air balance, 98% humidity) at 37° C. On day in vitro 4 one third of the culture medium was removed and replaced with fresh Neurobasal/2% B27 containing the mitotic inhibitor, cytosine arabinofuraNOside (1 mM final concentration; Sigma). On day in vitro 8 one half of the culture medium was replaced with Neurobasal/2% B27. Cultures were used on day in vitro 11 or 12 after which time they routinely consist of >97% neurons and 1-3% astrocytes (Meloni et al. 2001).

[6] = system: primary cortical neuronal cultures; assay: NMDA excitotoxicity model; type: cell-based, rat; conditions: peptide 15 min before and during NMDA exposure (FIG. 37)
Description: Establishment of cortical cultures was as previously described (Meloni et al. 2001). Briefly, cortical tissue from E18-E19 Sprague-Dawley rats was dissociated in Dulbecco's modified Eagle medium (DMEM; Invitrogen, Australia) supplemented with 1.3 mM L-cysteine, 0.9 mM NaHCOa, 10 units/ml papain (Sigma, USA) and 50 units/ml DNase (Sigma) and washed in cold DMEM/10% horse serum. Neurons were resuspended in Neurobasal (Invitrogen) containing 2% B27 supplement (B27; Invitrogen). Before seeding, 96-well sized glass wells (6 mm diameter, ProTech, Australia) or 96-well plastic plates (ProSciTech, Australia) were coated with poly-D-lysine overnight ([…]: 50 mg/mL; 70-150 K, Sigma). […]
as §2, with “For studies using astrocytes, bEND3, and SH-Y5Y cells, raw MTS data was used to generate graphs. Viability data was analysed by ANOVA, followed by post-hoc Fischer's PLSD test, with P<0.05 values considered statistically significant. Four- to six wells were used in all assays.” left out

[7] = system: primary cortical neuronal cultures; conditions: values from Meade et al. (2010a,b); read-out: IC50: Kainic acid model; cited from earlier work

| Substance | neuroprotection [1] | effect of heparin on neuroprotective action ([2]; heparin 20 IU/ml with peptide or 40 IU/ml on cultures (FIGS. 39, 40)) | neuroprotection (neuronal viability) [2] | neuroprotection [3] | IC50 [4] [nM] | calcium influx after glutamic acid [5] | neuroprotection when added immediately after glutamic acid exposure [2] | neuroprotection when added 15 minutes post-insult [2] | neuroprotection, milder insult ([2]; FIG. 1i, comparison at 0.5 μM and 1 μM) | neuroprotection (neuronal viability) ([2]; listed as TAT-NR29C) | neuroprotection [6] | neuroprotection when added immediately after glutamic acid exposure ([2]; listed as JNKI-1 D-TAT) | neuroprotection when added 15 minutes post-insult ([2]; listed as JNKI-1 D-TAT) | neuroprotection (neuronal viability) ([2]; listed as JNKI-1-TATD) | IC50 [7] [nM] |
| --- | --- | --- | --- | --- | --- | --- | --- | --- | --- | --- | --- | --- | --- | --- | --- |
| GRKKRRQRRRGGLQGRRRQGYQSIKP [PYC36L-TAT, reference compound] | effective | blocks neuroprotective actions | highly effective | effective | 1500 | to varying degrees reduced calcium influx |  |  |  |  |  |  |  |  |  |
| H-GRKKRRQRRR-KLSSIESDV-NH2 (H-GRKKRRQRRRKLSSIESDV-NH2) [NR2B9c-TAT, reference compound] |  |  |  |  |  | to varying degrees reduced calcium influx | did not significantly increase neuronal survival | did not significantly increase neuronal survival | ineffective | ineffective | low level neuroprotection |  |  |  |  |
| H-tdqsrpvqpflnlttprkprpp-rrrqrrkkrG-NH2 (H-[dT][dD][dQ][dS][dR][dP][dV][dQ][dP][dF][dL][dN][dL][dT][dT][dP][dR][dK][dP][dR][dP][dP][dR][dR][dR][dQ][dR][dR][dK][dK][dR]G-NH2; SMILES CC(C)C[C@@H](NC(=O)[C@@H](Cc1ccccc1)NC(=O)[C@H]1CCCN1C(=O)[C@@H](CCC(N)=O)NC(=O)[C@H](NC(=O)[C@H]1CCCN1C(=O)[C@@H](CCCNC(=N)N)NC(=O)[C@@H](CO)NC(=O)[C@@H](CCC(N)=O)NC(=O)[C@@H](CC(=O)O)NC(=O)[C@H](N)[C@H](C)O)C(C)C)C(=O)N[C@H](CC(N)=O)C(=O)N[C@H](CC(C)C)C(=O)N[C@@H](C(=O)N[C@@H](C(=O)N1CCC[C@@H]1C(=O)N[C@H](CCCNC(=N)N)C(=O)N[C@H](CCCCN)C(=O)N1CCC[C@@H]1C(=O)N[C@H](CCCNC(=N)N)C(=O)N1CCC[C@@H]1C(=O)N1CCC[C@@H]1C(=O)N[C@H](CCCNC(=N)N)C(=O)N[C@H](CCCNC(=N)N)C(=O)N[C@H](CCCNC(=N)N)C(=O)N[C@H](CCC(N)=O)C(=O)N[C@H](CCCNC(=N)N)C(=O)N[C@H](CCCNC(=N)N)C(=O)N[C@H](CCCCN)C(=O)N[C@H](CCCCN)C(=O)N[C@H](CCCNC(=N)N)C(=O)NCC(N)=O)[C@H](C)O)[C@H](C)O) [JNKI-1D-TAT, reference compound] |  |  | highly effective | effective | 2100 | to varying degrees reduced calcium influx | ineffective | ineffective |  |  |  | did not significantly increase neuronal survival | did not significantly increase neuronal survival | neuroprotective | 6500 |
